Measurements: ChEMBL document CHEMBL4406914, “Impact of Minor Structural Modifications on Properties of a Series of mTOR Inhibitors” (ACS Med Chem Lett, 2019)
In brackets after ≈: the same amount, converted by molar mass.

Assays:
[1] = Metabolic stability in human liver microsomes assessed as parent compound remaining at 1 uM measured at 15 mins in presence of phase 1 metabolism cofactors by LC-MS/MS analysis; assay type: ADME, Microsome; settings: read-out: Stability
[2] = Hepatic intrinsic clearance in human Hepatocytes assessed per at 1 uM measured upto 90 mins by LC-MS/MS analysis; assay type: ADME, cell-based, Hepatocyte; settings: 1.5 h
[3] = target: Serine/threonine-protein kinase mTOR (Homo sapiens, UniProt P42345); experiment: Inhibition of human recombinant GST-tagged mTOR catalytic domain (1360 to 2549 residues) expressed in baculovirus expression system using GFP-4E-BP1 peptide as substrate incubated for 1 hr by LanthaScreen assay
[4] = Kinetic aqueous solubility of compound in phosphate buffer at pH 7.4 at 100 uM at 20 degree C shaken for 24 hrs by HPLC analysis; assay type: physicochemical; settings: read-out: Kinetic_solubility
[5] = target: Phosphatidylinositol 4,5-bisphosphate 3-kinase catalytic subunit alpha isoform (Homo sapiens, UniProt P42336)
Description: Inhibition of PI3Kalpha (unknown origin) using PIP2 as substrate measured after 30 mins by TR-FRET assay

[6] = Lipophilicity, ChromlogD of compound at 0.5 mM at pH 6.5 by UPLC-UV analysis; settings: buffer, pH 6.5, 500 µM
mTORC1 = mTORC1 (Homo sapiens, UniProt P42345); experiment: Inhibition of mTORC1 in human A431 cells assessed as S6RP phosphorylation incubated for 3 hrs by HTRF assay; assay type: cell-based
mTORC2 = mTORC2 (Homo sapiens, UniProt P42345); experiment: Inhibition of mTORC2 in human A431 cells assessed as AKT phosphorylation at S473 residue incubated for 3 hrs by HTRF assay; assay type: cell-based

Chain of Phosphatidylinositol 4,5-bisphosphate 3-kinase catalytic subunit alpha isoform (P42336 whole entry, canonical isoform): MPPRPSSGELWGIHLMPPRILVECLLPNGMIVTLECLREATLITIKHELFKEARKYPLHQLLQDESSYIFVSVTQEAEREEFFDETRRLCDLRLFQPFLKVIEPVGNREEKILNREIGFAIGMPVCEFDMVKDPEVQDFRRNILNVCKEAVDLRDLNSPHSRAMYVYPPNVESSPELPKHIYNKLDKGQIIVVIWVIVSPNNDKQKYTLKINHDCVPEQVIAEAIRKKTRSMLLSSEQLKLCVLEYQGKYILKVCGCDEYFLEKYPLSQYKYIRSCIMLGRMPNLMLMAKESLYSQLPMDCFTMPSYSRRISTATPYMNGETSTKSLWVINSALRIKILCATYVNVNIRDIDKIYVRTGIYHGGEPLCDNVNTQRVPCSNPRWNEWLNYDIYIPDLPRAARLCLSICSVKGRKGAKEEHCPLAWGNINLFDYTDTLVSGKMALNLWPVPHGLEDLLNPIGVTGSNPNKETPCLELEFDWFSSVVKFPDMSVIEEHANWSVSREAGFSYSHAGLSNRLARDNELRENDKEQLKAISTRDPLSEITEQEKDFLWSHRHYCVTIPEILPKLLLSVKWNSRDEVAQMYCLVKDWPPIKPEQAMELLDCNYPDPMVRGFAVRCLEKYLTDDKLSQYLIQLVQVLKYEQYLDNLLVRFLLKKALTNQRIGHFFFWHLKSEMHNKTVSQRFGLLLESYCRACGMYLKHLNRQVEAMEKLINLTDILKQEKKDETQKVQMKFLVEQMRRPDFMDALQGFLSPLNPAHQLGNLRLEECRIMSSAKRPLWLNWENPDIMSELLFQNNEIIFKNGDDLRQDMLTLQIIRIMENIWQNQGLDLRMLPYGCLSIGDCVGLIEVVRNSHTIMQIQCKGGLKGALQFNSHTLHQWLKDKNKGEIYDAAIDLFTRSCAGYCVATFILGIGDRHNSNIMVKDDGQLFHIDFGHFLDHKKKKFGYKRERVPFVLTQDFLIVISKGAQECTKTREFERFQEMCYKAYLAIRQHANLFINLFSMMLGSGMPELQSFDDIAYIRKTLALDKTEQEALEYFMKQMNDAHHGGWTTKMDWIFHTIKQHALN

| Structure (SMILES) | remaining at 0.25 h, 1 µM [1] [%] | CLH [2] [µL/min] | Ki [3] [nM] | solubility kinetic at 24 h, 100 µM [4] [µM] | Ki [5] [nM] | ChromlogD6.5 [6] | IC50 (mTORC1) [nM] | IC50 (mTORC2) [nM] |
| --- | --- | --- | --- | --- | --- | --- | --- | --- |
| CC(C)n1nc(-c2ccc3oc(N)nc3c2)c2c(C(F)(F)F)nc(N)nc21 | > 95 | < 5 | 2300 | < 1 | > 10000 | 2.4 |  |  |
| Cc1nc2c(c(-c3ccc4oc(N)nc4c3)nn2C(C)C)c(=O)[nH]1 | > 95 | < 5 | 40 | 3 (≈ 0.973 µg/mL) | > 10000 | 1.2 | 45 | 90 |
| CC(C)n1nc(-c2ccc3oc(N)nc3c2)c2c(CO)nc(N)nc21 | > 95 | < 5 | 4000 | 82 (≈ 27.8 µg/mL) | > 10000 | 0.2 |  |  |
| CNc1nc2c(c(-c3ccc4oc(N)nc4c3)nn2C(C)C)c(=O)[nH]1 | > 95 | < 5 | 190 | < 1 | > 10000 | 1.5 | 240 | 360 |
| CCCCn1nc(-c2ccc3oc(N)nc3c2)c2c(C)nc(N)nc21 |  |  | 33 | 5.2 (≈ 1.75 µg/mL) | 2200 | 1.4 | 30 | 90 |
| CC(C)n1nc(-c2ccc3oc(N)nc3c2)c2c(C#N)nc(N)nc21 | > 95 | < 5 | 2200 | < 1 | > 10000 | 1.8 |  |  |
| CCCCn1nc(-c2ccc3oc(N)nc3c2)c2c(Cl)nc(N)nc21 |  |  | 11 | < 1 | 4600 | 2.3 | 7 | 20 |
| CC(C)n1nc(-c2ccc3oc(N)nc3c2)c2c(=O)[nH]c(N(C)C)nc21 | 90 | < 5 | 1700 | 2 (≈ 0.707 µg/mL) | > 10000 | 2.1 |  |  |

Results, then the compound that gave them:

| remaining at 0.25 h, 1 µM [1] [%] | CLH [2] [µL/min] | Ki [3] [nM] | solubility kinetic at 24 h, 100 µM [4] [µM] | Ki [5] [nM] | ChromlogD6.5 [6] | IC50 (mTORC1) [nM] | IC50 (mTORC2) [nM] | Structure (SMILES) |
| --- | --- | --- | --- | --- | --- | --- | --- | --- |
| 94 | 150 | 6 | 1.6 (≈ 0.495 µg/mL) | 780 | 1.1 | 7 | 15 | CC(C)n1nc(-c2ccc3oc(N)nc3c2)c2cnc(N)nc21 |
| > 95 | < 5 | 20 | 9.2 (≈ 2.99 µg/mL) | 3200 | 0.4 | 40 | 200 | CC(C)n1nc(-c2ccc3oc(N)nc3c2)c2c(=O)[nH]c(N)nc21 |
| > 95 | < 5 |  | 82 (≈ 25.4 µg/mL) |  | 0.4 |  |  | CC(C)n1nc(-c2ccc3oc(N)nc3c2)c2c(N)ncnc21 [SAPANISERTIB] |
| 83 | 57 | 13 | < 1 | 2600 | 1.8 | 40 | 80 | CC(C)n1nc(-c2ccc3oc(N)nc3c2)c2c(F)nc(N)nc21 |
| 94 | 55 | 21 | 4 (≈ 1.55 µg/mL) | 1000 | 1.8 | 35 | 60 | CC(C)n1nc(-c2ccc3oc(N)nc3c2)c2c(Br)nc(N)nc21 |
| > 95 | < 5 | 62 | 74 (≈ 23.9 µg/mL) | 990 | 0.8 | 40 | 200 | Cc1nc(N)nc2c1c(-c1ccc3oc(N)nc3c1)nn2C(C)C |
| > 95 |  | 370 | < 1 | 250 | 1.6 | 420 | 680 | COc1nc(N)nc2c1c(-c1ccc3oc(N)nc3c1)nn2C(C)C |
| 93 | < 5 | 50 | 62 (≈ 20.9 µg/mL) | 85 | 1.2 | 60 | 140 | CCc1nc(N)nc2c1c(-c1ccc3oc(N)nc3c1)nn2C(C)C |
| > 95 | < 5 | 4 | 88 (≈ 28.5 µg/mL) | 150 | -0.1 | 4 | 11 | CC(C)n1nc(-c2ccc3oc(N)nc3c2)c2c(N)nc(N)nc21 |
| 92 | 11 |  | 2 (≈ 0.688 µg/mL) | 920 | 1.7 | 8 | 20 | CC(C)n1nc(-c2ccc3oc(N)nc3c2)c2c(Cl)nc(N)nc21 |
